We go through three molecules from patent publication US7906332B2, “Method of preparing basement membrane, method of constructing basement membrane specimen, reconstituted artificial tissue using the basement membrane specimen and process for producing the same” (Japan Science And Technology Agency, priority 2001, dated 2011).

Assay [1] concerns alveolar epithelial cells. Briefly: Construction of a basement membrane according to the MMP inhibition method. It counts as cell-based. As to conditions: 2 weeks on fib, 1% fetal bovine serum, no basement membrane components added. On the procedure: Alveolar epithelial cells were cultured on collagen fiber (fib) with the only addition of 1% fetal bovine serum and synthetic inhibitor of matrix metalloproteinase (MMP) and without the addition of basement membrane components for 2 weeks. As MMP inhibitor, GM6001 (Calbiochem) and MMP-2/MMP-9 inhibitor I (Calbiochem) were used. 1.1 μM of GM6001 and 310 μM of MMP-2/MMP-9 inhibitor I (2/9 inhibitor) were added respectively.

For assay [2], the system named is type II alveolar epithelial cells. As to the kind of experiment: Basement membrane formation by alveolar epithelial cells on collagen fiber (fib) with Matrigel or TGF-β (T2-fib-MG, T2-fib-TGFβ). It counts as cell-based, rat. As to conditions: fibrous collagen substratum, TGF-β in upper and lower wells (T2-fib-TGFβ). An excerpt:
The present inventors made a study on a process to form a basement membrane structure just beneath the basal surface of epithelial cells on a fibrous collagen matrix by the coculture with fibroblasts-embedded collagen gel, and by the culture in the presence of TGF-β or Matrigel. […] However, it was also confirmed that type II alveolar epithelial cells were unable to constitute a basement membrane without the supply of, for example, a fibroblast, exogenous basement membrane components from Matrigel or a growth factor TGF-β, since the endogenous basement membrane components from type II alveolar epithelial cells are not enough for the cells to assemble a basement membrane structure effectively. […]

As to `CNC(=O)[C@H](Cc1c[nH]c2ccccc12)NC(=O)[C@@H](CC(=O)NO)CC(C)C` [GM6001], the “basement membrane structure formation beneath the cells” value in assay [1] (1.1 μM) was “complete basement membrane structure (▴) was formed”.

On to `O=C(O)[C@@H](Cc1ccccc1)NS(=O)(=O)c1ccc(-c2ccccc2)cc1` [MMP-2/MMP-9 inhibitor I], for which the “basement membrane structure formation beneath the cells” value in assay [1] (310 μM) was “complete basement membrane structure (▴) was formed”. Consider TGF-β, for which the “basement membrane formation by type II alveolar epithelial cells” value in assay [2] is reported as “a basement membrane was formed”.
